Patent US12534444B2, “Treatment of cancer/inhibition of metastasis” (Celex Oncology Innovations Limited, priority 2010, dated 2026)

How the values were obtained:
MDA-MB-231 cells [1] = experiment: Lateral motility assay (wound-heal / scratch); format: cell-based, human
Method: This assay was used to represent the “free” motility of cancer cells during local spreading. FIG. 5(a) is a plan view from above of a cell culture dish 501 having a semi-confluent layer of cells 502 on its surface, the cells being in an aqueous medium 503.
In order to determine lateral motility, a “wound-heal (“scratch”)” test was carried out, in which a scratch 504 of ˜0.5 mm was made through the layer of cells, as shown in FIG. 5(b) which is a side sectional view of the cell culture dish.
During the period of 24 hours following the formation of the scratch, the cells moved into the gap.
FIGS. 5(c) and 5(d) are schematic plan views of the cell culture dish 501 at time t=zero when the width of the scratch 504 is w0 and time t=24 hours when the width of the scratch 504 is w24, respectively.
(§1) With the exception of single cell adhesion tests, which are discussed in the following paragraph, experiments were carried out under either; • (i) normal normoxic conditions ([…], 5% carbon dioxide), or • (ii) following 24 hours hypoxic pre-treatment (2% O2, 5% CO2, 93% N2) continued during the assays.

MDA-MB-231 cells [2] = experiment: Transverse migration assay (Transwell); format: cell-based, human
Method: This assay was used to represent the ability of cells to migrate as they intra/extravasate. […] The insert 602 has a migration filter membrane 605 in its base with 8 μm pores 606 extending therethrough.
Cells 607 were plated at a density of 2×10^4/ml on the filter membrane 605 and placed under a growth medium 608 containing 1% foetal bovine serum (FBS). A chemotactic gradient was created across the filter membrane 605 by placing growth medium 609 containing 10% FBS in the lower section 604 of the chamber.
Cells were allowed to migrate across the filter membrane 605 over a period of 24 hours, cells migrating and adhering to the underside of the filter membrane 605.
At the end of each assay, non-migrated cells were removed from the upper surface of the insert 602 with two different swabs
(§2) The number of cells migrating to the underside of the insert 602 was determined using crystal violet staining. Migrated cells were fixed for 15 minutes with ice-cold methanol. Then 0.5% crystal violet (in 25% methanol) was added for 15 minutes. The inserts were swabbed again and then washed in water and allowed to dry. Cells were then counted using twelve separate fields of view per insert (×200 magnification).
as §1

MDA-MB-231 cells [3] = experiment: Invasion assay (Matrigel Transwell); format: cell-based, human; conditions: for INVASIVENESS (pretreatment): 72 hours pretreatment
From the text: This assay is an extension of the transverse migration assay described above. To “invade”, the cells need both (i) to move as in the transverse migration assay and (ii) secrete a proteolytic enzyme to digest their surroundings. The ability of cells to invade neighbouring tissues by enzyme secretion was therefore assessed by using a layer of Matrigel™ (BD Biosciences) spread across the porous membrane of a Transwell® insert.
FIG. 7 is a schematic side sectional view of an invasion chamber 701 having a Transwell® insert 702 separating the chamber into upper 703 and lower 704 sections. The insert 702 has a migration filter membrane 705 in its base with 8 μm pores 706 extending therethrough. A layer 707 of Matrigel™ is shown coating the filter membrane 705.
Cells 708 were plated at a density of 2×10^4/ml onto the Matrigel™ layer 707 in 24-well plates (Becton-Dickinson) according to the manufacturers' instructions. 50 μl Matrigel™ was seeded at a 1:7 dilution (10 mg/ml stock) onto the inserts and left overnight. Prior to seeding with the cells the Matrigel™ was rehydrated using medium with no additions. This medium was removed prior to seeding the cells.
Cells were plated in a 1-5% FBS chemotactic gradient overnight (12 hours). The nutrient concentration in the medium 709 in the upper section 703 of the chamber was less than the concentration of nutrient in the medium 710 in the lower section 704 to induced movement of the cells through the Matrigel™ layer 707 and through the pores 706 to the underside of the filter membrane 705. At the end of each assay, non-invaded/non-migrated cells were removed from the upper surface of the insert 702 with two different swabs.
as §2, with “invading” for “migrating”, “702” for “602”, “Invaded” for “Migrated”, “magnification). If the difference in the average number of cells invading the two control inserts was more than 40%, the experiment was rejected.” for “magnification).”
as §1

MDA-MB-231 cells [4] = experiment: Cell viability assay (trypan blue); format: cell-based, human; conditions: Normoxia, 48 hours
Method: (§3) Cells were seeded at a density of 5×10^4 cells/ml in 35 mm Falcon tissue culture dishes. After treatment with a given drug, the medium was removed and replaced with 800 μl of growth medium and 200 μl 0.4% trypan blue (Sigma, Dorset, UK) and incubated for 10 minutes in the incubator. The trypan blue was removed and the cells were washed once with 3 ml growth medium. For each treatment, cells from 30 random fields of view were counted under 100× magnification. The number of dead cells, stained blue, was counted in each field of view. The data were expressed as percentages of living cells out of the total number of cells in given fields of view. The percentages were averaged and differences between control and treatment were compared from at least three independent experiments.
as §1

Mat-LyLu cells = experiment: Cell viability assay (trypan blue); format: cell-based, rat
Method: as §3, §1

[5] = Hypoxia, 5 μM, listed as RILUZOLE

Nc1nc2ccc(OC(F)(F)F)cc2s1 [riluzole]
lateral motility with increasing concentration (MDA-MB-231 cells [1]; 1 μM, 10 μM and 100 μM, normoxia and hypoxia): reduced the lateral motility of the cells; the effect was greater under hypoxia
LATERAL MOTILITY (MDA-MB-231 cells [1]; Hypoxia, 1 μM): decreased
LATERAL MOTILITY (MDA-MB-231 cells [1]; Hypoxia, 10 μM): decreased
LATERAL MOTILITY (MDA-MB-231 cells [1]; Hypoxia, 100 μM): decreased
LATERAL MOTILITY (MDA-MB-231 cells [1]; Normoxia, 1 μM): no effect
LATERAL MOTILITY (MDA-MB-231 cells [1]; Normoxia, 10 μM): decreased
LATERAL MOTILITY (MDA-MB-231 cells [1]; Normoxia, 100 μM): decreased
TRANSVERSE MIGRATION (MDA-MB-231 cells [2]; Hypoxia, 1 μM): reduced the transverse migration in a statistically significant way
TRANSVERSE MIGRATION (MDA-MB-231 cells [2]; Hypoxia, 1 μM, listed as RILUZOLE): decreased
TRANSVERSE MIGRATION (MDA-MB-231 cells [2]; Hypoxia, 10 μM): reduced the transverse migration in a statistically significant way
TRANSVERSE MIGRATION (MDA-MB-231 cells [2]; Hypoxia, 10 μM, listed as RILUZOLE): decreased
TRANSVERSE MIGRATION (MDA-MB-231 cells [2]; Hypoxia, 100 μM): reduced the transverse migration in a statistically significant way
TRANSVERSE MIGRATION (MDA-MB-231 cells [2]; Hypoxia, 100 μM, listed as RILUZOLE): decreased
TRANSVERSE MIGRATION (MDA-MB-231 cells [2]; Normoxia, 1 μM): reduced the transverse migration of the cells in a statistically significant way
TRANSVERSE MIGRATION (MDA-MB-231 cells [2]; Normoxia, 1 μM, listed as RILUZOLE): decreased
TRANSVERSE MIGRATION (MDA-MB-231 cells [2]; Normoxia, 10 μM): no effect
TRANSVERSE MIGRATION (MDA-MB-231 cells [2]; Normoxia, 100 μM): reduced the transverse migration of the cells in a statistically significant way
TRANSVERSE MIGRATION (MDA-MB-231 cells [2]; Normoxia, 100 μM, listed as RILUZOLE): decreased
INVASIVENESS (no pretreatment) (MDA-MB-231 cells [3]; Hypoxia, 1 μM): decreased
INVASIVENESS (pretreatment) (MDA-MB-231 cells [3]; Hypoxia, 5 μM): significantly inhibited invasiveness
INVASIVENESS (pretreatment) (MDA-MB-231 cells [3]; [5]): decreased
INVASIVENESS (no pretreatment) (MDA-MB-231 cells [3]; [5]): decreased
INVASIVENESS (no pretreatment) (MDA-MB-231 cells [3]; Hypoxia, 5 μM, listed as Riluzole): significantly inhibited invasiveness
INVASIVENESS (no pretreatment) (MDA-MB-231 cells [3]; Normoxia, 1 μM): decreased
CELL VIABILITY (MDA-MB-231 cells [4]; 1 μM): no effect
CELL VIABILITY (MDA-MB-231 cells [4]; 10 μM): decreased the cell viability
CELL VIABILITY (MDA-MB-231 cells [4]; 10 μM, listed as RILUZOLE): cell death
CELL VIABILITY (MDA-MB-231 cells [4]; 100 μM): decreased the cell viability
CELL VIABILITY (MDA-MB-231 cells [4]; 100 μM, listed as RILUZOLE): cell death
CELL VIABILITY (Mat-LyLu cells; Hypoxia, 1 μM): no effect
CELL VIABILITY (Mat-LyLu cells; Hypoxia, 10 μM, 24 h): no effect
CELL VIABILITY (Mat-LyLu cells; Hypoxia, 10 μM, 24 h, listed as RILUZOLE): cell death
CELL VIABILITY (Mat-LyLu cells; Hypoxia, 30 μM, 24 h): no effect
CELL VIABILITY (Mat-LyLu cells; Hypoxia, 30 μM, 24 h, listed as RILUZOLE): cell death
CELL VIABILITY (Mat-LyLu cells; Hypoxia, 100 μM, 24 h): no effect
CELL VIABILITY (Mat-LyLu cells; Hypoxia, 100 μM, 24 h, listed as RILUZOLE): cell death
CELL VIABILITY (Mat-LyLu cells; Normoxia, 10 μM, 24 h): no effect
CELL VIABILITY (Mat-LyLu cells; Normoxia, 30 μM, 24 h): no effect
CELL VIABILITY (Mat-LyLu cells; Normoxia, 100 μM, 24 h): no effect
